Like-named read-outs stand apart in the source and are kept apart here.
Key:
[1] = a little more than a year of treatment; cited from earlier work
[2] = patients who had a recent acute coronary syndrome; cited from earlier work
[3] = tested on: AIM HIGH participants; assay: AIM-HIGH randomized double blind clinical trial, primary composite endpoint of CVD events, also segregated by Hp type; assay type: in vivo, human; details: DM participants
Excerpt: AIM-HIGH (clinicaltrials.gov NCT00120289) was a randomized double blind clinical trial which set out to test the HDL hypothesis—that raising HDL would reduce CVD events. This hypothesis was based on epidemiological data showing that individuals with higher HDL had lower CVD. AIM-HIGH set out to raise HDL via the drug niacin. […] All participants received simvastatin. The primary endpoint was the first event of the composite of death from coronary heart disease, nonfatal myocardial infarction, ischemic stroke, hospitalization for an acute coronary syndrome, or symptom driven coronary or cerebral revascularization.
Hp typing was performed by the inventors using polyacrylamide gel electrophoresis. Data on Hp typing was returned to the AIM HIGH coordinating center which provided the event rates in these participants segregated by Hp type and treatment (monotherapy with statins only or combination therapy with statins plus niacin).

[4] = tested on: AIM HIGH participants; details: cited from earlier work
[5] = tested on: ApoB depleted serum
Procedure: (§1) This AIM HIGH substudy was approved by the AIM HIGH steering committee and was designed to investigate whether the Hp phenotype influenced HDL functional metrics in DM participants in AIM HIGH. All 1140 DM participants in AIM HIGH were subjected to Hp phenotyping. Functional HDL metrics (RCT and antioxidant function) was evaluated at baseline and at one year of treatment in 70 Hp 1-1 and 70 Hp 2-2 DM individuals with half in the niacin and half in the placebo group. In 20 Hp 1-1 and 20 Hp 2-2 DM individuals the amount of Hb associated with the HDL at baseline was measured. Individuals performing all functional assays were blinded to treatment assignment of all samples used for this study.
(§2) The amount of total oxidation and HDL anti-oxidant function were assessed in apolipoprotein (apo)-B depleted serum using the fluorescent and oxidation-sensitive agent dihydrorhodamine 123 (DHR). Apo-B depleted serum was prepared using polyethylene glycol (PEG) as previously described in Asztalos BF, de la Llera-Moya M, Dallal G E, Horvath K V, Schaefer E J, Rothblat G H. Differential effects of HDL subpopulations on cellular ABCA1- and SR-BI-mediated cholesterol efflux. J Lipid Res. 2005; 46:2246-2253
(§3) Briefly-serum samples were treated with PEG solution to precipitate apoB-containing lipoproteins by adding 40 parts PEG solution (20% PEG in 200 mM glycine buffer, pH 7.4) to 100 parts serum. After a 20 min incubation, the precipitate was removed by high-speed centrifugation (10,000 rpm, 30 min, 4° C.) to obtain the PEG supernatant containing the HDL lipoprotein fraction.
(§4) Duplicates of 20 μl of apo-B-depleted serum were transferred to clear-bottom 96-well plates, and 180 μl of iron-free Hepes-buffered saline (HBS) containing 50 μM DHR was then added. Immediately after the addition of DHR, the kinetics of fluorescence increase was followed in a BMG Galaxy Fluostar microplate reader at 37° C. with a 485/538 nm excitation/emission filter pair with repeated readings every 2 minutes up to 40 minutes. Total oxidation was calculated as the rate of DHR oxidation (fluorescent units (FU)/min) for each duplicate after subtracting the rate of DHR oxidation observed using the same conditions but in the absence of serum.

[6] = for HDL Y1 (mean) / LDL Y1 (mean) / TG Y1 (mean): year 1
Excerpt: AIM-HIGH (clinicaltrials.gov NCT00120289) was a randomized double blind clinical trial which set out to test the HDL hypothesis—that raising HDL would reduce CVD events. This hypothesis was based on epidemiological data showing that individuals with higher HDL had lower CVD. AIM-HIGH set out to raise HDL via the drug niacin. The 3414 participants in AIM HIGH were randomly assigned to receive extended release niacin […] vs placebo. All participants received simvastatin. The primary endpoint was the first event of the composite of death from coronary heart disease, nonfatal myocardial infarction, ischemic stroke, hospitalization for an acute coronary syndrome, or symptom driven coronary or cerebral revascularization.
70 Hp 1-1 and 70 Hp 2-2 DM AIM HIGH participants, with half in the niacin and half in the placebo group, were randomly selected by the AIM HIGH coordinating center for analysis for HDL metrics at baseline and one year into the study.

[7] = tested on: HDL
Procedure: as §1, §2, §3, §4
HDL anti-oxidation function represents a fraction of the total oxidation prevented by HDL (in which case HDL is behaving as an antioxidant) or provoked by HDL (in which case HDL is behaving as a pro-oxidant) within each sample. To calculate HDL anti-oxidant function, HDL was depleted by immunoprecipitation from apo-B-depleted serum using anti-human apoA1 antibody and protein A/G Sepharose, before duplicates of corrected volumes of remnant apo-B- and Apo-A-depleted serum were transferred to 96-well plates and the rate of DHR oxidation measured in the identical manner and in parallel with the measurement of total oxidation as described above.

[8] = all participants; increased from mean of 35 mg/dl; cited from earlier work
[9] = tested on: Murine macrophage J774 cells; details: Hp 1-1 group, baseline vs 1 year on niacin
Procedure: Serum induced reverse cholesterol transport function and HDL antioxidant function were measured in 70 Hp 1-1 and 70 Hp 2-2 participants from the AIM HIGH study at baseline and at one year after randomization to placebo or niacin.
as §1, with “Individuals performing all functional assays were blinded to treatment assignment of all samples used for this study.” left out
Measurement of HDL efflux capacity was performed as previously described. […] Liquid scintillation counting was then determined in 500 μl of the medium collected from each well as well as in the cells after washing the cells twice with PBS and lysing them in 0.1 N NaOH. Cholesterol efflux capacity was determined as the percentage efflux of total counts per minute in the medium divided by the total counts per minute in the medium and in the cells and after subtraction of the nonspecific efflux obtained in cells incubated in the absence of serum.

[10] = tested on: HDL; details: Hp 2-2 DM individuals; three independent studies; cited from earlier work
[11] = Hp 2-2 genotype individuals with diabetes mellitus; cited from earlier work
[12] = Hp 1-1 niacin group, at one year vs baseline
[13] = Hp 2-2 niacin group, at one year vs baseline

CC(C)c1c(C(=O)Nc2ccccc2)c(-c2ccccc2)c(-c2ccc(F)cc2)n1CC[C@@H](O)C[C@@H](O)CC(=O)O [Atorvastatin®, Atorvastatin]
deaths [1]: 51

CCC(CC)CC1(C(=O)Nc2ccccc2SC(=O)C(C)C)CCCCC1 [Dalcetrapib®, S-[2-({[1-(2-ethylbutyl)cyclohexyl]carbonyl}amino)phenyl] 2-methylpropanethioate]
HDL cholesterol levels (in words) [2]: increase HDL cholesterol levels | risk of recurrent cardiovascular events (in words) [2]: did not reduce the risk of recurrent cardiovascular events

CCC(C)(C)C(=O)O[C@H]1C[C@@H](C)C=C2C=C[C@H](C)[C@H](CC[C@@H]3C[C@@H](O)CC(=O)O3)[C@H]21 [Simvastatin]
% Primary Event, % of N in this category ([3]; HP1-1): (24.0%) | Event Rate ([3]; HP1-1): 0.0803 | N Primary Event ([3]; HP1-1): 23 | % Primary Event, % of N in this category ([3]; HP2-1): (17.9%) | Event Rate ([3]; HP2-1): 0.0582 | N Primary Event ([3]; HP2-1): 46 | % Primary Event, % of N in this category ([3]; HP2-2): (16.3%) | Event Rate ([3]; HP2-2): 0.0532 | N Primary Event ([3]; HP2-2): 33

O=C(O)c1cccnc1 [niacin, pyridine-3-carboxylic acid]
primary endpoint occurred in patients ([4]; all 3414 participants, extended release niacin 1500-2000 g/day, all received simvastatin, mean follow up 3 years): 282 patients | primary endpoint, % of group ([4]; all participants, niacin group, all received simvastatin, mean follow up 3 years): 16.4% | HR for primary endpoint ([4]; niacin group vs placebo group, all participants): 1.02 | change in total oxidation (in words) ([5]; Hp 1-1 individuals): significant decrease | total oxidation decreased by [5, 12]: 19.1±3.4 oxidation units | change in total oxidation (in words) ([5]; Hp 2-2 individuals): significant increase in total oxidation | total oxidation increased by [5, 13]: 13.4±5.0 oxidation units | HDL Y1 (mean) ([6]; Hp 11 niacin group, HDL base 33.91): 40.94 | LDL Y1 (mean) ([6]; Hp 11 niacin group, LDL base 81.18): 67.71 | TG Y1 (mean) ([6]; Hp 11 niacin group, TG base 193.12): 174.97 | HDL Y1 (mean) ([6]; Hp 22 niacin group, HDL base 33.74): 43.29 | LDL Y1 (mean) ([6]; Hp 22 niacin group, LDL base 65.91): 64.15 | TG Y1 (mean) ([6]; Hp 22 niacin group, TG base 211.88): 164.50 | HDL mass (in words) ([6]; both Hp 1-1 and Hp 2-2 DM individuals): significant increase in HDL mass | change in HDL antioxidant function (in words) ([7]; Hp 1-1 individuals): improved | change in HDL antioxidant function (in words) ([7]; Hp 1-1 individuals, listed as Niacin): increase in HDL antioxidant function | HDL antioxidant function increased by [7, 12]: 10.8±2.3 units | change in HDL antioxidant function (in words) ([7]; Hp 2-2 individuals): worsened | change in HDL antioxidant function (in words) ([7]; Hp 2-2 individuals, listed as Niacin): significant decline in the antioxidant function | HDL antioxidant function decreased by [7, 13]: 8.3±2.9 units | HDL, mean on treatment [8]: 42 mg/dL | increase in median efflux [9]: 14%

vitamin E
RCT function (in words) [10]: restore and significantly improve RCT function | risk for cardiovascular diseases (in words) [11]: reduces the risk for cardiovascular diseases

Reference: patent US20170336420A1, “METHODS AND KITS FOR TREATING CARDIOVASCULAR DISEASES” (RAPPAPORT FAMILY INSTITUTE FOR RESEARCH IN THE MEDICAL …, priority 2014, published 2017)
